# From patent US9758494B2, “N-(oxazol-2-yl)-aryl-carboxylic acid amides and use thereof as herbicides” (BAYER CROPSCIENCE AG, priority 2012, dated 2017)
# Tests used:
# Format in all cases: in vivo
# [1] = system: Cyperus serotinus; assay: Post-emergence herbicidal action; settings: Dosage 80/ha (Table Q)
# Experimental: (§1) Seeds of monocotyledonous and dicotyledonous weed plants and crop plants are laid out in wood fiber pots in sandy loam, covered with soil and cultivated in a greenhouse under good growth conditions. 2 to 3 weeks after sowing, the test plants are treated at the one-leaf stage. The compounds according to the invention, formulated in the form of wettable powders (WP) or as emulsion concentrates (EC), are then sprayed onto the green parts of the plants in the form of an aqueous suspension or emulsion at a water application rate equating to 600 to 800 l/ha, with addition of 0.2% wetting agent. After the test plants have been left to stand in the greenhouse under optimal growth conditions for about 3 weeks, the action of the preparations is assessed visually in comparison to untreated controls (herbicidal action in percent (%): 100% activity=the plants have died, 0% activity=like control plants). Here, for example, compounds No. 1-163, 1-171, 1-172, 1-173, 1-254, 1-283, 1-284, 1-293, 1-294 and 1-334, at an application rate of 80 g/ha, have an activity of at least 80% against Abutilon theophrasti and Amaranthus retroflexus.
# (§2) In the tables below, the properties of the compounds according to the invention are compared to those of the structurally most similar compounds known from WO 2012/028579 A1. These tests were carried out by the pre- and post-emergence method under the conditions mentioned under item 1 and item 2. Here, the herbicidal activity against various harmful plants and the damage of some important crop plants were compared at different dosages.
# [2] = system: Lolium multiflorum; assay: Post-emergence herbicidal action; settings: for herbicidal activity, Harmful plants LOLMU: Dosage 80/ha (Table Q); for herbicidal activity against harmful plants LOLMU: Dosage 20/ha (Table R)
# Experimental: as §1, §2
# [3] = system: Polygonum convolvulus; assay: Pre-emergence herbicidal action; settings: Dosage 320/ha (Table F)
# Excerpt: (§3) Seeds of monocotyledonous and dicotyledonous weed plants and crop plants are laid out in wood-fiber pots in sandy loam and covered with soil. The compounds according to the invention, formulated in the form of wettable powders (WP) or as emulsion concentrates (EC), are then applied to the surface of the soil cover in the form of an aqueous suspension or emulsion at a water application rate equating to 600 to 800 l/ha, with addition of 0.2% wetting agent. After the treatment, the pots are placed in a greenhouse and kept under good growth conditions for the test plants. The damage to the test plants is assessed visually after a test period of 3 weeks by comparison with untreated controls (herbicidal activity in percent (%): 100% activity=the plants have died, 0% activity=like control plants). Here, for example, compounds No. 1-163, 1-171, 1-172, 1-283, 1-284, 1-294, 1-295, 1-334, 10-001 and 11-343, at an application rate of 320 g/ha, have an activity of at least 80% against Veronica persica.
# as §2
# [4] = system: Lolium multiflorum; assay: Pre-emergence herbicidal action; settings: Dosage 320/ha (Table F)
# Excerpt: as §3, §2
# [5] = system: Oryza sativa (Rice); assay: Post-emergence, damage of crop plants; settings: for damage of crop plants, Crop plant ORYZA: Dosage 80/ha (Table Q)
# Experimental: as §1, §2
# [6] = system: Pharbitis purpureum; assay: Post-emergence herbicidal action; settings: Dosage 20/ha (Table S)
# Experimental: as §1, §2
# [7] = system: Triticum aestivum (Wheat); assay: Post-emergence, damage of crop plants
# Experimental: as §1, §2
# [8] = system: Zea mays (Corn); assay: Post-emergence, damage of crop plants; settings: Dosage 20/ha (Table S)
# Experimental: as §1, §2
# [9] = system: Zea mays (Corn); assay: Pre-emergence, damage of crop plants; settings: Dosage 320/ha (Table G)
# Excerpt: as §3, §2
# [10] = system: Brassica napus (Oilseed Rape); assay: Pre-emergence, damage of crop plants
# Excerpt: as §3, §2
# [11] = system: Oryza sativa (Rice); assay: Pre-emergence, damage of crop plants
# Excerpt: as §3, §2
# [12] = system: Avena fatua; assay: Pre-emergence herbicidal action
# Excerpt: as §3, §2
# [13] = system: Brassica napus (Oilseed Rape); assay: Post-emergence, damage of crop plants
# Experimental: as §1, §2
# [14] = system: Setaria viridis; assay: Post-emergence herbicidal action; settings: Dosage 20/ha (Table R)
# Experimental: as §1, §2
# [15] = system: Abutilon theophrasti; assay: Pre-emergence herbicidal action; settings: Dosage 320/ha (Table C)
# Excerpt: as §3, §2
# [16] = system: Amaranthus retroflexus; assay: Pre-emergence herbicidal action; settings: Dosage 320/ha (Table C)
# Excerpt: as §3, §2
# [17] = system: Matricaria inodora; assay: Pre-emergence herbicidal action; settings: Dosage 320/ha (Table C)
# Excerpt: as §3, §2
# [18] = system: Echinochloa crus galli; assay: Pre-emergence herbicidal action; settings: Dosage 320/ha (Table C)
# Excerpt: as §3, §2
# [19] = system: Triticum aestivum (Wheat); assay: Pre-emergence, damage of crop plants; settings: Dosage 80/ha (Table B)
# Excerpt: as §3, §2
structure (smiles),measurement,setting,value
"Cn1nnnc1NC(=O)c1ccc(S(C)(=O)=O)c([S+](C)[O-])c1Cl (stereo not drawn) [WO 2012/028579, No. 4-293]","herbicidal activity, Harmful plants CYPES",[1],40%
same,"herbicidal activity, Harmful plants LOLMU",[2],40%
same,herbicidal activity against harmful plants POLCO,[3],20%
same,herbicidal activity against harmful plants LOLMU,[4],20%
same,"damage of crop plants, Crop plant ORYZA",[5],40%
"Cn1nnnc1NC(=O)c1ccc(C(F)(F)F)c([S+](C)[O-])c1Cl (stereo not drawn) [WO 2012/028579, No. 4-639]","herbicidal activity, Harmful plant PHBPU",[6],40%
same,"damage of crop plants, Crop plants TRZAS",[7]; Dosage 20/ha (Table S),100%
same,"damage of crop plants, Crop plants ZEAMX",[8],80%
same,"damage of crop plants, Crop plants ORYZA",[5]; Dosage 20/ha (Table S),60%
same,damage of crop plants ZEAMX,[9],40%
same,damage of crop plants BRSNW,[10]; Dosage 320/ha (Table G),90%
same,damage of crop plants ORYZA,[11]; Dosage 320/ha (Table G),90%
"CCS(=O)(=O)c1ccc(C(=O)Nc2nnnn2-c2ccccc2)c(Cl)c1C1=NOC(CC#N)C1 (stereo not drawn) [WO 2012/028579, No. 6-268]",Herbicidal activity against AVEFA,[12]; 20 g/ha (Table L),0%
same,Herbicidal activity against AVEFA,[12]; 80 g/ha (Table L),0%
same,Damage of BRSNW,[13]; 20 g/ha (Table X),20%
same,Damage of BRSNW,[13]; 80 g/ha (Table X),60%
"CCn1nnnc1NC(=O)c1ccc(S(C)(=O)=O)c([S+](C)[O-])c1Cl (stereo not drawn) [WO 2012/028579, No. 5-294]",herbicidal activity against harmful plants LOLMU,[2],10%
same,herbicidal activity against harmful plants SETVI,[14],0%
"Cc1c(C(=O)Nc2nnnn2C)ccc(S(C)(=O)=O)c1S(C)(=O)=O [WO 2012/028579, No. 1-188]",herbicidal activity against harmful plants ABUTH,[15],0%
same,herbicidal activity against harmful plants AMARE,[16],40%
same,herbicidal activity against harmful plants MATIN,[17],40%
same,herbicidal activity against harmful plants ECHCG,[18],0%
same,damage of crop plants TRZAS,[7]; Dosage 20/ha (Table O),40%
same,damage of crop plants BRSNW,[13]; Dosage 20/ha (Table O),100%
same,damage of crop plants ORYZA,[5]; Dosage 20/ha (Table O),20%
CCS(=O)(=O)c1ccc(C(=O)Nc2nc(C)c(C)o2)c(Cl)c1C1=NOC(CC#N)C1 (stereo not drawn) [11-343],Herbicidal activity against AVEFA,[12]; 20 g/ha (Table K),80%
same,Herbicidal activity against AVEFA,[12]; 20 g/ha (Table L),80%
same,Herbicidal activity against AVEFA,[12]; 80 g/ha (Table J),80%
same,Herbicidal activity against AVEFA,[12]; 80 g/ha (Table K),80%
same,Herbicidal activity against AVEFA,[12]; 80 g/ha (Table L),80%
same,Herbicidal activity against AVEFA,[12]; 320 g/ha (Table J),100%
same,Damage of BRSNW,[13]; 5 g/ha (Table W),0%
same,Damage of BRSNW,[13]; 20 g/ha (Table V),0%
same,Damage of BRSNW,[13]; 20 g/ha (Table W),0%
same,Damage of BRSNW,[13]; 20 g/ha (Table X),0%
same,Damage of BRSNW,[13]; 80 g/ha (Table V),0%
same,Damage of BRSNW,[13]; 80 g/ha (Table X),0%
"CCS(=O)(=O)c1ccc(C(=O)Nc2ncnn2C)c(Cl)c1C1=NOC(CC#N)C1 (stereo not drawn) [WO 2012/028579, No. 1-267]",Herbicidal activity against AVEFA,[12]; 80 g/ha (Table J),0%
same,Herbicidal activity against AVEFA,[12]; 320 g/ha (Table J),0%
same,Damage of BRSNW,[13]; 20 g/ha (Table V),90%
same,Damage of BRSNW,[13]; 80 g/ha (Table V),90%
C[S+]([O-])c1c(S(C)(=O)=O)ccc(C(=O)Nc2ncco2)c1Cl (stereo not drawn) [1-284],"herbicidal activity, Harmful plants CYPES",[1],60%
same,herbicidal activity against harmful plants LOLMU,[2],60%
same,"herbicidal activity, Harmful plants LOLMU",[2],70%
same,herbicidal activity against harmful plants SETVI,[14],90%
same,herbicidal activity against harmful plants POLCO,[3],70%
same,herbicidal activity against harmful plants LOLMU,[4],100%
same,"damage of crop plants, Crop plant ORYZA",[5],20%
"CCn1nnnc1NC(=O)c1ccc(C(F)(F)F)c(SC)c1C [WO 2012/028579, No. 5-146]",damage of crop plants TRZAS,[7]; Dosage 80/ha (Table N),60%
same,damage of crop plants BRSNW,[13]; Dosage 80/ha (Table N),100%
same,damage of crop plants ORYZA,[5]; Dosage 80/ha (Table N),80%
same,damage of crop plants TRZAS,[19],30%
same,damage of crop plants BRSNW,[10]; Dosage 80/ha (Table B),90%
same,damage of crop plants ORYZA,[11]; Dosage 80/ha (Table B),90%
